Values quoted from earlier work in patent US20100021879A1, “COMPOSITIONS AND METHODS FOR PRESERVING RED BLOOD CELLS” (THE REGENTS OF THE UNIVERSITY OF MICHIGAN, priority 2007, published 2010).

Legend:
[1] = system: erythrocyte; conditions: prior to hemolysis
[2] = system: red blood cells

OCl [hypochlorous acid]
K leak [1]: increase in K leak
erythrocyte deformability evidenced by ektacytometry [1]: changes in erythrocyte deformability

CC[N+](CC)(CC)CC [TEA]
red blood cell deformability [2]: increased deformability
